What was measured:
physchem = assay type: physicochemical; conditions: 25 °C, water, thermodynamic from solid
[1] = Stability test of oral preparation (powder in vial, HPLC); conditions: for Residual amount: powder (solid)
Procedure: It was then stored at different temperatures (25° C., 40° C., 60° C.) for 6 months and the amount of active ingredients in powder were measured by HPLC.

[2] = Acute toxicity test in rats, single intravenous dose; assay type: in vivo; conditions: male, Sprague-Dawley, rat, in vivo, iv; rats, single i.v. dose, 14 days; read-out: Estimated LD50
[3] = test system: SD (Sprague Dawley) male rats; experiment: as above; assay type: in vivo; conditions: for Number of dead animals/Number of drug-treated animals: 14 days after administration
[4] = Stability test of injectable preparation (salt in WFI, HPLC); conditions: in WFI 2 mg/ml

O=C([O-])c1cc(NCc2c(F)c(F)c(C(F)(F)F)c(F)c2F)ccc1O.[Na+] [sodium salt, sodium 2-hydroxy-5-(2,3,5,6-tetrafluoro-4-trifluoromethyl-benzylamino)benzoate]
solubility at 48 h (physchem): 25 to 80 mg/mL | stability in powder form ([1]; high temperatures): relatively stable in high temperatures | Residual amount ([1]; 25° C., day 0): 101.33 ± 1.02% | Residual amount ([1]; 25° C., day 7): 100.75 ± 6.24% | Residual amount ([1]; 25° C., day 14): 100.45 ± 1.24% | Residual amount ([1]; 25° C., day 21): 99.76 ± 0.70% | Residual amount ([1]; 25° C., day 30): 99.61 ± 3.21% | Residual amount ([1]; 25° C., day 60): 99.60 ± 0.16% | Residual amount ([1]; 25° C., day 120): 99.51 ± 1.70% | Residual amount ([1]; 25° C., day 180): 99.19 ± 2.28% | Residual amount ([1]; 40° C., day 0): 101.33 ± 1.02% | Residual amount ([1]; 40° C., day 7): 100.81 ± 3.35% | Residual amount ([1]; 40° C., day 14): 100.69 ± 0.29% | Residual amount ([1]; 40° C., day 21): 100.57 ± 0.48% | Residual amount ([1]; 40° C., day 30): 100.46 ± 0.27% | Residual amount ([1]; 40° C., day 60): 100.07 ± 0.16% | Residual amount ([1]; 40° C., day 120): 99.94 ± 1.15% | Residual amount ([1]; 40° C., day 180): 99.89 ± 1.11% | Residual amount ([1]; 60° C., day 0): 101.33 ± 1.02% | Residual amount ([1]; 60° C., day 7): 101.27 ± 4.45% | Residual amount ([1]; 60° C., day 14): 101.14 ± 0.50% | Residual amount ([1]; 60° C., day 21): 100.15 ± 1.14% | Residual amount ([1]; 60° C., day 30): 100.10 ± 0.75% | Residual amount ([1]; 60° C., day 60): 99.91 ± 1.18% | Residual amount ([1]; 60° C., day 120): 99.81 ± 2.28% | Residual amount ([1]; 60° C., day 180): 99.75 ± 0.20% | LD50 at 14 day [2]: 225 to 250 mg/kg | Number of dead animals/Number of drug-treated animals ([3]; 50 mg/kg single i.v. dose): 0/5 | Number of dead animals/Number of drug-treated animals ([3]; 100 mg/kg single i.v. dose): 0/5 | Number of dead animals/Number of drug-treated animals ([3]; 150 mg/kg single i.v. dose): 0/7 | Number of dead animals/Number of drug-treated animals ([3]; 175 mg/kg single i.v. dose): 1/7 | Number of dead animals/Number of drug-treated animals ([3]; 200 mg/kg single i.v. dose): 2/7 | Number of dead animals/Number of drug-treated animals ([3]; 225 mg/kg single i.v. dose): 2/7 | Number of dead animals/Number of drug-treated animals ([3]; 250 mg/kg single i.v. dose): 5/5 | toxicity compared with free base ([3]; rats, i.v., Tables 7-9): less toxicity than free base | Residual amount ([4]; 25° C., day 0): 104.15 ± 0.54% | Residual amount ([4]; 25° C., day 3): 101.89 ± 1.16% | Residual amount ([4]; 25° C., day 7): 100.59 ± 0.19% | Residual amount ([4]; 25° C., day 14): 101.63 ± 0.19% | Residual amount ([4]; 25° C., day 21): 99.25 ± 1.41% | Residual amount ([4]; 25° C., day 30): 98.50 ± 1.64% | Residual amount ([4]; 25° C., day 60): 98.52 ± 0.02% | Residual amount ([4]; 25° C., day 90): 94.04 ± 4.28% | Residual amount ([4]; 25° C., day 120): 92.79 ± 1.01% | Residual amount ([4]; 25° C., day 150): 90.18 ± 3.14% | Residual amount ([4]; 25° C., day 180): 85.56 ± 4.58% | Residual amount ([4]; 40° C., day 0): 104.15 ± 0.54% | Residual amount ([4]; 40° C., day 3): 102.77 ± 0.08% | Residual amount ([4]; 40° C., day 7): 98.54 ± 0.71% | Residual amount ([4]; 40° C., day 14): 99.56 ± 0.72% | Residual amount ([4]; 40° C., day 21): 95.98 ± 1.50% | Residual amount ([4]; 40° C., day 30): 95.17 ± 0.07% | Residual amount ([4]; 40° C., day 60): 91.51 ± 1.17% | Residual amount ([4]; 40° C., day 90): 86.36 ± 0.90% | Residual amount ([4]; 40° C., day 120): 79.02 ± 1.05% | Residual amount ([4]; 40° C., day 150): 77.42 ± 0.71% | Residual amount ([4]; 40° C., day 180): 72.32 ± 0.38% | Residual amount ([4]; 60° C., day 0): 104.15 ± 0.54% | Residual amount ([4]; 60° C., day 3): 99.39 ± 0.43% | Residual amount ([4]; 60° C., day 7): 92.01 ± 1.27% | Residual amount ([4]; 60° C., day 14): 92.96 ± 1.28% | Residual amount ([4]; 60° C., day 21): 84.54 ± 1.34% | Residual amount ([4]; 60° C., day 30): 82.88 ± 4.35% | Residual amount ([4]; 60° C., day 60): 70.25 ± 4.27% | Residual amount ([4]; 60° C., day 90): 56.00 ± 11.70% | Residual amount ([4]; 60° C., day 120): 53.43 ± 6.30% | Residual amount ([4]; 60° C., day 150): 40.37 ± 14.41% | Residual amount ([4]; 60° C., day 180): 37.10 ± 12.35%

Source: patent US7495126B2, “Process of preparation of substituted tetrafluorobenzylaniline compound and its pharmaceutically approved salts” (priority 2005, dated 2009)
